Experimental data reported in PMC9516332 (Frontiers in Oncology, 2022).
Like-named read-outs stand apart in the source and are kept apart here.

Key:
Test in all cases: Kinase panel profiling at 1 µmol/L (MSA or IMAP), percentage inhibition
Format in all cases: biochemical
[1] = biological target: T1, panel of 255 wild-type kinases (Homo sapiens, UniProt O00418); details: read-out: %-inhibition at 1 µmol/L, EEF2K
T1 sequence (O00418 1-725): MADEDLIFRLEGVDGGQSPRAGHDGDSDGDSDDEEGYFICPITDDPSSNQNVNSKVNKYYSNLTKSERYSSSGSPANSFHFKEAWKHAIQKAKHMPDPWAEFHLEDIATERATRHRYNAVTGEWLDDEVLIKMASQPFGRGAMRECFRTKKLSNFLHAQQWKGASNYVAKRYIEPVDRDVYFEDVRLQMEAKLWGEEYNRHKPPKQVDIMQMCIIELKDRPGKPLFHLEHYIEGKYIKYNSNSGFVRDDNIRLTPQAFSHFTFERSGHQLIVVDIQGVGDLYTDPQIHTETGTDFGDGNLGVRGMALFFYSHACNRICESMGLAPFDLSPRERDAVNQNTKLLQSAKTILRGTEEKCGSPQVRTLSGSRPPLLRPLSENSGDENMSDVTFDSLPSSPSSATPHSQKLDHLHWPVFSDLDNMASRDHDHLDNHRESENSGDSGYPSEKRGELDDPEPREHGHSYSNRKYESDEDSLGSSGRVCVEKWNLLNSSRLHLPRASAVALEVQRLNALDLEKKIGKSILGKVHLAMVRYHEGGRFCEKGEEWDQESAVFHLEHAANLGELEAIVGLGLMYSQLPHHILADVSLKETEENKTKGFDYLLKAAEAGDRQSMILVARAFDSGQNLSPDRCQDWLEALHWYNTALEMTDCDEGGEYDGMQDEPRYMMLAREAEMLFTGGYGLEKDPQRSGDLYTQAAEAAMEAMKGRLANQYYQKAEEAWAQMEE

[2] = biological target: panel of 255 wild-type kinases (Homo sapiens, UniProt O43683); details: read-out: %-inhibition BUB1/BUB3
[3] = biological target: panel of 255 wild-type kinases (Homo sapiens, UniProt P14616); details: read-out: %-inhibition at 1 µmol/L, IRR
[4] = biological target: panel of 255 wild-type kinases (Homo sapiens, UniProt P16591); details: read-out: %-inhibition at 1 µmol/L, FER
[5] = biological target: panel of 255 wild-type kinases (Homo sapiens, UniProt P21802); details: read-out: %-inhibition at 1 µmol/L, FGFR2
[6] = biological target: panel of 255 wild-type kinases (Homo sapiens, UniProt P22694); details: read-out: %-inhibition at 1 µmol/L, PKACβ
[7] = biological target: panel of 255 wild-type kinases (Homo sapiens, UniProt P51812); details: read-out: %-inhibition at 1 µmol/L, RSK2
[8] = biological target: panel of 255 wild-type kinases (Homo sapiens, UniProt Q5VT25); details: read-out: %-inhibition, MRCKα
[9] = biological target: T2, panel of 255 wild-type kinases (Homo sapiens, UniProt Q8IW41); details: read-out: %-inhibition, MAPKAPK5
T2 sequence (Q8IW41 1-473): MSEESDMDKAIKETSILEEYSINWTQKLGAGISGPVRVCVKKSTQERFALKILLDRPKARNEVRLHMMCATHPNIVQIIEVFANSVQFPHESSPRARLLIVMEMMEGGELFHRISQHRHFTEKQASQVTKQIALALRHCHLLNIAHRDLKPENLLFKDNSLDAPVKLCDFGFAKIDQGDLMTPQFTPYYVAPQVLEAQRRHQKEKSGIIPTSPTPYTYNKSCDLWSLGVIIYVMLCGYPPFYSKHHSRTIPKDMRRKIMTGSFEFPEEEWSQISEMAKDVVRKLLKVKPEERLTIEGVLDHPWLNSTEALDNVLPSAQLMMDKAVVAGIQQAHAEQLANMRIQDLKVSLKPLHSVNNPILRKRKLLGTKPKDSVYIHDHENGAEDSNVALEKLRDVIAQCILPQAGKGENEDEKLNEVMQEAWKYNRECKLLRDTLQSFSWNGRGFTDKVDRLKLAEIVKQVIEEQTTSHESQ

[10] = biological target: panel of 255 wild-type kinases (Homo sapiens, UniProt Q9H4B4); details: read-out: %-inhibition at 1 µmol/L, PLK3
[11] = biological target: panel of 255 wild-type kinases (Homo sapiens, UniProt Q9UK32); details: read-out: %-inhibition at 1 µmol/L, RSK4
[12] = biological target: panel of 255 wild-type kinases (Homo sapiens, UniProt Q9Y5S2); details: read-out: %-inhibition, MRCKβ
[13] = kinase EEF2K, 1 µmol/L single concentration
[14] = BUB1/BUB3 kinase assay, 1 µmol/L single concentration
[15] = kinase IRR, 1 µmol/L single concentration
[16] = kinase FER, 1 µmol/L single concentration
[17] = kinase FGFR2, 1 µmol/L single concentration
[18] = kinase PKACβ, 1 µmol/L single concentration
[19] = kinase RSK2, 1 µmol/L single concentration
[20] = MRCKα, 1 µmol/L single concentration
[21] = MAPKAPK5, 1 µmol/L single concentration
[22] = kinase PLK3, 1 µmol/L single concentration
[23] = kinase RSK4, 1 µmol/L single concentration
[24] = MRCKβ, 1 µmol/L single concentration

SMILES	inhibition at 1 µM [1, 13]	inhibition at 1 µM [2, 14]	inhibition at 1 µM [3, 15]	inhibition at 1 µM [4, 16]	inhibition at 1 µM [5, 17]	inhibition at 1 µM [6, 18]	inhibition at 1 µM [7, 19]	inhibition at 1 µM [8, 20]	inhibition at 1 µM [9, 21]	inhibition at 1 µM [10, 22]	inhibition at 1 µM [11, 23]	inhibition at 1 µM [12, 24]	other results
CCN1C(=O)N(c2c(F)c(OC)cc(OC)c2F)Cc2cnc3[nH]c(CN4CCOCC4)cc3c21 [pemigatinib]	-3.26%	-3.37%	8%	-3%	–	-7%	-5%	-3.23%	2.28%	-1.19%	-7%	-4.4%	–
CNC(=O)c1ccc(-c2cnc3ncc(Cc4ccc5ncccc5c4)n3n2)cc1F [capmatinib]	–	–	–	–	–	–	–	–	–	–	–	–	inhibition at 1 µM [1]: -0.629%; inhibition at 1 µM [2]: 1.44%; inhibition at 1 µM [3]: 4%; inhibition at 1 µM [4]: 2.2%; inhibition at 1 µM [5]: 7%; inhibition at 1 µM [6]: -9%; inhibition at 1 µM [7]: -3%; inhibition at 1 µM [8]: 0.535%; inhibition at 1 µM [9]: -7%; inhibition at 1 µM [10]: 0.709%; inhibition at 1 µM [11]: 8%; inhibition at 1 µM [12]: -1.73%
FC(F)(F)c1ccc(CNc2ccc(Cc3c[nH]c4ncc(Cl)cc34)cn2)cn1 [pexidartinib]	-2.25%	5.7%	14%	21%	62%	4%	14%	0.771%	0.469%	12%	24%	2.43%	–
Cn1cnc2c(F)c(Nc3ccc(Br)cc3F)c(C(=O)NOCCO)cc21 [binimetinib]	-6%	-3.43%	-5.48%	4.71%	4.56%	-0.56%	0.103%	-5.53%	-4.73%	-0.0416%	-0.233%	1.58%	–
C[C@H]1Oc2cc(cnc2N)-c2c(nn(C)c2C#N)CN(C)C(=O)c2ccc(F)cc21 [lorlatinib]	-1.73%	-5%	78%	–	5.32%	-18%	-0.881%	-6%	2.32%	2.15%	-2%	2.78%	–
CCN1CCN(c2ccc(Nc3cc(N(C)C(=O)Nc4c(Cl)c(OC)cc(OC)c4Cl)ncn3)cc2)CC1 [infigratinib]	2.54%	-1.66%	34%	9.48%	–	-17%	-7%	0.933%	-6%	-0.24%	7%	-0.837%	–
CN1CCN(c2ccc(C(=O)Nc3n[nH]c4ccc(Cc5cc(F)cc(F)c5)cc34)c(NC3CCOCC3)c2)CC1 [entrectinib]	3.25%	-5.38%	100%	99%	97%	-21%	–	-3.42%	0.65%	4.71%	–	-7%	–

The next lines start with results.

inhibition at 1 µM [1, 13]	inhibition at 1 µM [2, 14]	inhibition at 1 µM [3, 15]	inhibition at 1 µM [4, 16]	inhibition at 1 µM [5, 17]	inhibition at 1 µM [6, 18]	inhibition at 1 µM [7, 19]	inhibition at 1 µM [8, 20]	inhibition at 1 µM [9, 21]	inhibition at 1 µM [10, 22]	inhibition at 1 µM [11, 23]	inhibition at 1 µM [12, 24]	SMILES	other results
2.4%	-4%	2.15%	1.22%	1.1%	-21%	-1.52%	2.24%	-3.2%	0.774%	5.4%	0.656%	Cn1cnc2c(F)c(Nc3ccc(Br)cc3Cl)c(C(=O)NOCCO)cc21 [selumetinib]	–
-1.54%	19%	3%	35%	100%	-4.64%	47%	-2.65%	-1.78%	-1.64%	43%	-3.65%	COc1ccc(CN2C3CC2CN(c2ccc(-c4cc(OCC(C)(C)O)cn5ncc(C#N)c45)cn2)C3)cn1 [selpercatinib]	–
-2%	-6%	1.69%	3.72%	-6.46%	-14%	-7.4%	0.38%	-3%	-0.714%	-7%	-2.21%	O=C(Nc1cnn2ccc(N3CCC[C@@H]3c3cc(F)ccc3F)nc12)N1CC[C@H](O)C1 [larotrectinib]	–
0.762%	-3.41%	7%	-1.81%	5%	-16%	-3.62%	-3.44%	0.859%	4.56%	-5%	-7%	C[C@H](Nc1ncnc2nc[nH]c12)c1cc2cccc(Cl)c2c(=O)n1-c1ccccc1 [duvelisib]	–
1.23%	-0.908%	10%	75%	98%	20%	23%	1.82%	-3.49%	-0.12%	37%	1.9%	CO[C@]1(C(=O)N[C@@H](C)c2ccc(-n3cc(F)cn3)nc2)CC[C@H](c2nc(C)cc(Nc3cc(C)[nH]n3)n2)CC1 [pralsetinib]	–
-2.79%	0.842%	3%	1.35%	6%	-15%	-3%	0.364%	2%	1.59%	0.229%	2%	Cc1cc(Nc2ncnc3ccc(NC4=NC(C)(C)CO4)cc23)ccc1Oc1ccn2ncnc2c1 [tucatinib]	–
